According to ChEMBL document CHEMBL4145513, “An overview on crystal structures of InhA protein: Apo-form, in complex with its natural ligands and inhibitors” (Eur J Med Chem, 2018):

Experiments:
[1] = target: T1, Enoyl-[acyl-carrier-protein] reductase [NADH] (Mycobacterium tuberculosis, UniProt P9WGR1, V203A)
[2] = target: Enoyl-[acyl-carrier-protein] reductase [NADH] (Mycobacterium tuberculosis, UniProt P9WGR1, I215A); test: biochemical
[3] = target: T1, Enoyl-[acyl-carrier-protein] reductase [NADH]; remark: listed apart in the source
[4] = target: Enoyl-[acyl-carrier-protein] reductase [NADH] (Mycobacterium tuberculosis, UniProt P9WGR1, D2A); test: Inhibition of Mycobacterium tuberculosis InhA D2A mutant
[5] = target: Enoyl-[acyl-carrier-protein] reductase [NADH] (Mycobacterium tuberculosis, UniProt P9WGR1, T2A); test: Inhibition of Mycobacterium tuberculosis InhA T2A mutant
[6] = tested on: Mycobacterium tuberculosis; test: Antimycobacterial activity against Mycobacterium tuberculosis harboring InhA T2A mutant; assay type: functional
[7] = target: T2, Enoyl-[acyl-carrier-protein] reductase [NADH] (Mycobacterium tuberculosis, UniProt P9WGR1, S94A); test: Inhibition of Mycobacterium tuberculosis InhA S94A mutant using trans-2-decenoyl-CoA as substrate by spectrophotometric analysis
[8] = target: Enoyl-[acyl-carrier-protein] reductase [NADH] (Mycobacterium tuberculosis, UniProt P9WGR1, I21V); test: Inhibition of Mycobacterium tuberculosis InhA I21V mutant using trans-2-decenoyl-CoA as substrate by spectrophotometric analysis
[9] = target: T2, Enoyl-[acyl-carrier-protein] reductase [NADH]; test: Inhibition of Mycobacterium tuberculosis InhA S94A mutant

CCCCCCc1ccc(Oc2ccccc2C)c(O)c1
Ki [1]: 0.427 µM | Ki [2]: 0.114 µM | Ki [3]: 0.913 µM

NC(=O)c1c[n+]([C@@H]2O[C@H](COP(=O)(O)OP(=O)(O)OC[C@H]3O[C@@H](n4cnc5c(N)ncnc54)[C@H](O)[C@@H]3O)[C@@H](O)[C@H]2O)ccc1C(=O)c1ccncc1
IC50 [4]: 0.323 µM | Ki [4]: 0.172 µM | IC50 [5]: 0.019 µM | Ki [5]: 0.005 µM | MIC50 [6]: 1.8 µM | Ki [7]: 0.0053 µM | Ki [8]: 0.0021 µM | IC50 [9]: 0.323 µM | Ki [9]: 0.172 µM
